Entries after “also recorded” stand apart in the source; their conditions may differ.
Legend:
[1] = tested on: breast cancer cells; conditions: exposure to 17-AAG; cited from earlier work
[2] = tested on: NSCLC cells; conditions: exposure to 17-AAG; cited from earlier work
[3] = tested on: CD138+ myeloma cells; assay: Abnormal mitochondrial potential (apoptosis) of CD138+ cells from bone marrow aspirates; assay type: in vivo, human
Text: PD assessment included the following tests: The occurrence of specific toxicities (e.g., severity, duration and reversibility) was compared to PK parameters (e.g., clearance, exposure, elimination half-life, maximal plasma concentration, and time above a target plasma concentration). These toxicities included hepatotoxicity and gastrointestinal toxicities. The laboratory correlates included a) surface expression of insulin-like growth factor receptor-1 (IGF-1R) and b), total expression of Akt, Hsp90 and Hsp70. […] Immunoblotting analyses were used to evaluate the total levels of Akt, Hsp90 and Hsp70. […] Finally, peripheral blood mononuclear cells were isolated on two occasions (the first and last infusion in Cycle 1, on Days 1 and 11) prior to and 4 hours following the infusion. Cells were examined for change in client protein expression by Western Blot. Client proteins of interest include Hsp70, RAF1, LCK and CDK4 and others as indicated.
MM cells were purified by a Fluorescence Activated Cell Sorter (FACS) from the BMA based upon CD138 expression. These CD138^+ cells collected were then tested for abnormal mitochondrial potential by measuring mitochondrial potential in plasma cells using […] (BD Biosciences, San Jose, Calif.). […] Abnormal mitochondrial potential is observed prior to apoptosis of that cell (programmed cell death).

[4] = tested on: metastatic melanoma; conditions: cited from earlier work
[5] = tested on: leukemia cells; conditions: exposure to 17-AAG; cited from earlier work
[6] = tested on: MEXF 276 L melanoma cells; conditions: exposure to 17-AAG; cited from earlier work
[7] = tested on: solid tumors and lymphomas; conditions: patients with solid tumors and lymphomas; cited from earlier work
[8] = tested on: plasma protein; assay: Plasma protein binding, in vitro assays using human blood
[9] = tested on: Hsp70; conditions: 320-450 mg/m^2/week; cited from earlier work
[10] = tested on: Hsp70; assay: Immunoblot of peripheral blood leukocytes for client proteins; assay type: in vivo, human
Text: These toxicities included hepatotoxicity and gastrointestinal toxicities. The laboratory correlates included a) surface expression of insulin-like growth factor receptor-1 (IGF-1R) and b), total expression of Akt, Hsp90 and Hsp70. […] Immunoblotting analyses were used to evaluate the total levels of Akt, Hsp90 and Hsp70. […]; and b) correlation of clinical responses to 17-AAG with the degree of modulation of the biomarkers. […] Finally, peripheral blood mononuclear cells were isolated on two occasions (the first and last infusion in Cycle 1, on Days 1 and 11) prior to and 4 hours following the infusion. Cells were examined for change in client protein expression by Western Blot. Client proteins of interest include Hsp70, RAF1, LCK and CDK4 and others as indicated.

[11] = tested on: SKBr3 breast cancer cells; conditions: exposure to 17-AAG; cited from earlier work
[12] = tested on: advanced solid tumors; conditions: patients with advanced solid tumors; cited from earlier work
[13] = tested on: solid tumors; conditions: adult patients with solid tumors; cited from earlier work
[14] = dose levels studied; cited from earlier work
[15] = weekly 17-AAG, 3 weeks out of a 4 week cycle; cited from earlier work
[16] = daily for 5 days every 3 weeks; cited from earlier work
[17] = tested on: diffuse GFP positive MM lesions; conditions: survival analysis; cited from earlier work
[18] = tested on: AKT; assay: AKT+ cells in bone marrow aspirates
[19] = tested on: cell kill; conditions: in vitro and in vivo xenograft models; cited from earlier work
[20] = tested on: Raf-1; conditions: at 24 hours; cited from earlier work
[21] = tested on: multiple myeloma; assay: Anti-myeloma response (Bladé criteria) in the dose escalating trial; assay type: in vivo, human
Description: The method of the invention was tested in an open-label, dose escalating clinical trial.
Disease response evaluations were performed following every two cycles of treatment (approximately every 6 weeks). The determination of anti-tumor efficacy in stable or responding patients was based on objective tumor assessments made according to a standardized myeloma response assessment system.
All patients with responding tumors (CR or PR) were examined to confirm the response 6 weeks after the first documentation of response.

[22] = Dose limiting toxicity and drug-related toxicities in the MM trial
Text: Non-Hematologic toxicities comprise: (1) any≧Grade 3 non-hematologic toxicity (except Grade 3 injection site reaction, alopecia, anorexia, fatigue), (2) nausea, diarrhea and/or vomiting of Grade≧3 despite the use of maximal medical intervention and/or prophylaxis, and/or (3) treatment delay of more than 4 weeks due to prolonged recovery from a drug-related toxicity.
The doses and schedule of study drug were as follows. […] Subsequent patient cohorts were enrolled per the escalation scheme outlined in the table below, as supported by observed toxicities. […] If one of three evaluable patients experienced a DLT, then the cohort was increased to six evaluable patients. If two or more of six evaluable patients in a cohort experienced a DLT, then the MTD was deemed to have been exceeded; all further accrual was at the previous dose level. If no more than one of the six patients experienced a DLT, then the next dose level was evaluated.

[23] = Day 11 versus prior to treatment
[24] = screening versus Day 11, 150 and 220 mg/m^2 doses

C=CCNC1=C2C[C@@H](C)C[C@H](OC)[C@H](O)[C@@H](C)/C=C(\C)[C@H](OC(N)=O)[C@@H](OC)/C=C\C=C(/C)C(=O)NC(=CC1=O)C2=O [17-AAG, 17-Allylamino-17-demethoxygeldanamycin]
effect on client proteins [1]: depletion of steroid receptors
effect on client proteins [2]: depletion of erbB 1 (EGFR) and erbB2 (p185) levels
percent of CD138+ cells with abnormal mitochondrial potential in BM ([3]; Day 11 of treatment (less than 5% prior to treatment), p=0.06, FIG. 9): more than 40%
increase in percent of cells with abnormal mitochondrial potential [3, 23]: more than 35%
apoptosis in BMAs [3, 24]: increased apoptosis; also recorded: increase in apoptosis
complete or partial responses ([4]; once weekly schedule): No complete or partial responses were recorded
stable disease ([4]; patients treated at 320-450 mg/m^2): two showed radiologically documented long term stable disease
effect on client proteins [5]: down-regulation of intracellular Bcr-Ab1 and c-Raf proteins and reduction of Akt kinase activity
effect on client proteins [6]: depletion of Hsp90 and down-regulation of Raf-1 and erbB2
objective tumor responses [7]: No objective tumor responses have been observed
protein bound in plasma [8]: approximately 95%
patients with induction of the co-chaperone protein Hsp70 [9]: 8 of 9
Hsp70 in peripheral blood leukocytes ([10]; 220 mg/m^2 cohort, following treatment): reactive induction of Hsp70
Hsp70 in PBL, immunoblot ([10]; two patients (275 and 340 mg/m^2), prior to and 4 h after infusion, Day 1 and Day 11): increase of Hsp70
effect on client proteins [11]: depletion of erbB2 and destabilization of Raf-1 and mutant p53
objective tumor responses [12]: No objective tumor responses have been observed
objective tumor responses [13]: No objective tumor responses were observed
relation of dose and area under the curve (AUC) [14]: linear correlation
MTD [15]: 308 mg/m^2
maximum tolerated dose (MTD) and recommended Phase 2 dose [16]: 40 mg/m^2
median overall survival [17]: significantly prolonged median overall survival
percent of AKT+ cells over total BM cells ([18]; Day 11 of treatment (more than 20% prior to treatment), p=0.057, FIG. 10): less than 10%
decrease in percent of AKT+ cells [18, 23]: more than 10%
Akt / pAKT in BMAs [18, 24]: decreased Akt; also recorded: decrease in pAKT
concentrations needed to achieve cell kill [19]: 10 to 500 nM
patients with Raf-1 depletion in tumor biopsies [20]: 4 out of 6
disease response ([21]; 150 mg/m^2 twice weekly 2 of 3 weeks, four evaluable patients): One showed a MR; also recorded: one patient had a MR, two had stable disease and one had progressive disease
disease response ([21]; 220 mg/m^2 twice weekly 2 of 3 weeks, seven evaluable patients): four are stable disease and three are progressive disease; also recorded: four patients had stable disease and three had progressive disease
disease response ([21]; 275 mg/m^2 twice weekly 2 of 3 weeks, three evaluable patients): all three had stable disease
disease response ([21]; 340 mg/m^2 twice weekly 2 of 3 weeks, five evaluable patients): two patients had stable disease and three had progressive disease
percent of patients with stable disease ([21]; 19 evaluable patients, after three or more cycles): 58%
percent of patients with response (MR) ([21]; 19 evaluable patients, all dose levels): 5%
reduction of urine M-protein ([21]; one patient considered a PR, withdrawn for skin rash and wheezing): 90%
reduction of urine M-protein ([21]; one patient, 150 mg/m^2, after two cycles (MR), FIG. 12): 41%
reduction of serum M-spike ([21]; one patient, 275 mg/m^2, after eight cycles (stable disease), FIG. 13): 11%
DLT ([22]; 150 mg/m^2, four patients): DLT was not observed in any of these four patients
DLT ([22]; 220 mg/m^2, seven evaluable patients): DLT was observed in one patient; the DLT was liver infiltration of plasma cells with a Grade 3 elevated ALT
DLT ([22]; 275 mg/m^2 twice weekly two of three weeks, three patients): DLT was not observed in any of these three patients; also recorded: without reaching dose limiting toxicity
drug-related toxicities other than the single Grade 3 elevated ALT ([22]; all dose levels): Grade 1-2 elevated transaminases, nausea, fatigue, diarrhea, anemia, myalgias and rash
